Results published in patent publication US10921324B2, “Compositions and methods related to the methylation of histone H1.0 protein” (Aelan Cell Technologies, Inc., priority 2016, dated 2021).
Ends that are not written are not given here.

Experiments:
G9A methyltransferase [1] = assay: In vitro methylation of unmodified H1.0 peptide with G9A, products by LC-MS; assay type: biochemical
Method: In order to identify the precise sites of methylation by G9A and GLP methyltransferases on histone H1.0, in vitro methylation assays were performed and subsequently analyzed by Liquid Chromatography and High-resolution Mass Spectrometry (LC-MS) analysis. Methylation reactions were set up using either G9A methyltransferase (NEB, M0235S, Lot #0031201) or GLP methyltransferase (Cayman Chemical, 10755). The methyl donor in each reaction was unlabeled S-Adenosyl-L-Methionine (NEB, B9003S). The H1.0 substrate in each reaction was either unmodified H1.0 peptide labeled with biotin (ThermoFisher Scientific, Biotin-[…] (SEQ ID NO:69)), di-methylated H1.0 peptide (ThermoFisher Scientific, Biotin-[…]^(me2)PK (SEQ ID NO:70)), or full-length recombinant human H1.0 (NEB, M2501S). […]
For the Liquid Chromatography and High-resolution Mass Spectrometry (LC-MS) analysis, samples were prepared as described above and about 1 μg o the product was injected onto a Thermo Scientific Easy nLC system configured with a 10 cm×100 um trap column and a 25 cm×100 um ID resolving column. […] This ensured optimal full-scan data for quantification. […]
Protein identification was performed using Thermo Scientific Proteome Discoverer version 1.4 (including Sequest and Percolator algorithms) using RefSeqHuman sequence database. […] Protein quantification was performed using Pinpoint version 1.4 software. The Pinpoint quantification workflow included importing the Proteome Discoverer .msf files as spectral libraries. Identified peptides were subsequently quantified in MS .raw files using the Pinpoint peak finding, chromatographic alignment and area calculation algorithms.
In order to identify the precise locations of G9A methylation on unmodified H1.0 peptide ([…] (SEQ ID NO:36)), a methylation reaction was set up and the products identified by LC-MS. […] The methylation reaction was subsequently analyzed by LC-MS, and each spectral peak (corresponding to a peptide species in the final reaction) was identified and quantified using spectral counts. […]

G9A methyltransferase [2] = assay: Radiolabel in vitro methylation assay of H1.0 peptide (autoradiography); assay type: biochemical; conditions: 10U G9A, S-[Methyl-3H] SAM, 37° C. 1 hour
Method: In order to visualize methylation of H1.0 peptide by G9A methyltransferase in vitro, a methylation assay was performed incorporating a radiolabelled methyl donor, which allows for visualization of methylated peptide on a gel after autoradiography exposure. The following methylation reaction was set up in a 1.5 ml tube: 1×HMT reaction buffer (50 mM Tris-HCl, 5 mM MgCl2, 4 mM dithiothreitol, pH 9.0), 10U G9A Methyltransferase (NEB, M0235S, Lot #0031201), 3.2 mM Adenosyl-L-Methionine, S-[Methyl-3H] (Perkin Elmer, NET155H, Lot #1664720), 10 μg H1.0 peptide (ThermoFisher Scientific, Biotin-[…] (SEQ ID NO:69)), final volume 10 μl. A control reaction as above but without H1.0 peptide was also created. Reactions were incubated in a thermocycler at 37° C. for 1 hour. Reactions were stopped by incubating on ice for 5 minutes, and subsequently resolved on a 16.5% Tricine gel (BioRad, 4563063). Gels were soaked in 30% methanol, 5% glycerol for 30 minutes before vacuum drying at RT for 24 hours. Autoradiography analysis of dried gels with a phosphoimager (Molecular Dynamics) was then performed to assess effective methylation of H1.0 peptide with methyl-3H groups by the G9A methyltransferase. (Example 1, FIG. 8A)
The methylation reaction was subsequently resolved on a gel and visualized via autoradiography. […] A control reaction lacking H1.0 peptide yielded no tritium-labeled products.

G9A methyltransferase, sequence (Q9Z148 969-1263 limits assumed): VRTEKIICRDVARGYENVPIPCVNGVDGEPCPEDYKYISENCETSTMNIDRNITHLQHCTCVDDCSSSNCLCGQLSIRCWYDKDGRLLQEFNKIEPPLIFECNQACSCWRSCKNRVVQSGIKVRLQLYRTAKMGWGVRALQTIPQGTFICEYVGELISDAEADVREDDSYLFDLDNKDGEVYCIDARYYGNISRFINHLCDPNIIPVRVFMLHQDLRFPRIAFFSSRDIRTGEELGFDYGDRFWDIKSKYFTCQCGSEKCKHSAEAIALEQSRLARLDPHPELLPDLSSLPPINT

- H1.0K180 dimethylated, % of all peptides (G9A methyltransferase [1]; LC-MS spectral counts, 10U G9A, 3.2 mM S-Adenosyl-L-Methionine, 37° C. 1 hour): 99.9%
- estimated methylation efficiency (G9A methyltransferase [1]; dimethylation of K180 by G9A): about 99%
- methylation of H1.0 peptide by G9A (tritium-labeled methyl groups, band at 4 kDa) (G9A methyltransferase [2]): capable of methylating an H1.0 peptide
Sequence: AKPVKASKPKKAKPVKPK (not fully specified (N-terminus); listed as Homo sapiens) [unmethylated H1.0 peptide, unmodified H1.0 peptide substrate for in vitro methylation]
- sites of methylation by G9A on the peptide (G9A methyltransferase [1]; LC-MS): dimethylates lysine K180 but not other lysines (K166, K174, K175 or K177)
